Measurements published in patent publication US20150273076A1, “SP1 POLYPEPTIDES, MODIFIED SP1 POLYPEPTIDES AND USES THEREOF” (Fulcrum SP Ltd., priority 2006, published 2015).

Key:
[1] = mouse, in vivo, iv
[2] = test system: SP1; assay: Vinblastine binding to SP1 by intrinsic tryptophan fluorescence; parameters: species or system Populus tremula; settings: native SP1; 80 μM Vinblastine shifts maximal emission to 356 nm
Method: FIG. 23 is a graph showing the complex formation of the drug Vinblastine to SP1. Left panel-emission spectra (excitation wavelength=286.00 nm) of pure SP1 (48 μM in MES) was determined using a fluorometer. Both native (left curves) and unfolded (6M Guanidinum HCl)(right curves) SP1 were tested. The net effect of Vinblastine on Tryptophan fluorescence of native protein was calculated by subtracting the relative quenching by the unfolded protein from those of the native protein at the respective maximal emission wavelength (340 nm and 321 nm respectively). Note that the tryptophan fluorescence of both the folded and unfolded SP1 protein is quenched by Vinblastine complexing, but in the case of the folded protein is also accompanied by a red shift);
Vinblastine, a vinca alkaloid, is mainly useful for treating Hodgkin's disease, lymphocytic lymphoma, histiocytic lymphoma, advanced testicular cancer, advanced breast cancer, Kaposi's sarcoma. Vinblastine binding to SP1, was determined by Intrinsic Tryptophan fluorescence measurements.
SP1 has only one Tryptophan residue (Trp 48). […] Unfolded protein fluorescence is also quenched by Vinblastine (FIG. 23), but unlike the native protein it is not accompanied by red shift. Thus, folded SP1-Vinblastine association can be detected, and quantified by changes in its Intrinsic Tryptophan fluorescence.

Row | clearance from circulation [1] | Structure (SMILES) | effect on SP1 tryptophan fluorescence [2]
1 | rapidly cleared | Nc1ccc2c(c1)C(=O)OC21c2ccc(O)cc2Oc2cc(O)ccc21 [Fluoresceinamine] | –
2 | – | CC[C@]1(O)C[C@@H]2CN(CCc3c([nH]c4ccccc34)[C@@](C(=O)OC)(c3cc4c(cc3OC)N(C)[C@H]3[C@@](O)(C(=O)OC)[C@H](OC(C)=O)[C@]5(CC)C=CCN6CC[C@]43[C@@H]65)C2)C1 [Vinblastine] | fluorescence quenching accompanied by a red shift
